We go through ten compounds from patent US20260085262A1, “ACQ FLUORESCENCE PROBE COMPOSITION, CMC DETERMINATION METHOD, STAIN CLEANING CONCENTRATION DETERMINATION METHOD, DETERGENT DISPENSING CONTROL METHOD, AND DETERGENT DISPENSING CONTROL SYSTEM” (GUANGZHOU BLUEMOON INDUSTRIAL CO., LTD., priority 2024, published 2026).

Series [1] is described as follows: cmc determination with probe solutions in NMP, fluorescence spectrophotometer. The class given is physicochemical. As to conditions: Supreme Clean solution (directly prepared); probe dissolved in NMP; range read from fluorescence intensity-concentration curve.
Text: (§1) In order to determine whether these fluorescence probe molecules can form a stable probe solution, the inventors dissolved these probe molecules in N-methylpyrrolidone (NMP).
(§2) Detergent solutions prepared in a series of concentrations, including the directly prepared Supreme Clean (i.e. Supreme Biotechnology (Clean) liquid laundry detergent) solution and Supreme Brilliant White (i.e. Supreme Biotechnology (Brilliant White) liquid laundry detergent) washing water containing a fluorescent brightener, are tested using these probe solutions formed above. Specifically, an appropriate wavelength is selected according to the determination results of a fluorescence spectrophotometer, and a fluorescence response value-concentration curve is plotted with detergent concentrations on the x-axis and fluorescence intensity on the y-axis. The change section of the curve from a plateau region to a rising region is visually obtained, corresponding to the value range of the measured value of cmc.
Assay in series [2]: as above
The class given is physicochemical. As to conditions: Supreme Brilliant White washing water with fluorescent brightener; probe dissolved in NMP.
Text: as §1, §2

The conditions of series [3]: document value; cited from earlier work.
For series [4] the following is noted: cited from earlier work; for Solvent solubility in water: classified with reference to solvent data in Pub Chem; for Flash point / Viscosity / Volatility/Boiling point: solvent.
Series [5] is described as follows: Solubility classification of probe molecule in solvent. As to conditions: ACQ probe molecule is CUR; label = solvent.
A short description of series [6]: Hansen solubility parameters (HSP), δ difference and HSP distance Ra.
Series [7] is described as follows: cmc by surface tension method. The class given is physicochemical. Conditions: NMP without probe. The text has this:
Based on the above speculation, the inventors also observed the change in the cmc value at different addition amounts of the NMP solvent (without the probe) used in the CUR-NMP probe solution using the surface tension method. When the addition amount of NMP is less than 1000, the cmc value determined is affected to some extent, but the effect is small. When the addition amount of NMP is less than 400, the cmc value determined is basically not affected, and the result is basically consistent with the result determined by fluorescence spectrometry and conforms to the inference.
FIG. 5 is a graph showing the curves obtained by determining the cmc of the above various brands of detergent solutions using the surface tension method.

Series [8] is described as follows: cmc by fluorescence probe method, customized photoelectric detector (CD detector). Conditions: aqueous solution of Supreme Biotechnology (Bright White) laundry detergent; label = solvent for probe. The class given is physicochemical. The protocol: Here, the liquid to be tested is Supreme Biotechnology (Brilliant White) detergent solution (ZZLB), and the detector is a customized photoelectric detector (CD detector).
In addition, due to the use of the CUR-NMP single organic solvent composition system, the solvent addition amount in Table 6 can be considered equivalent to the addition amount of the probe solution. The cmc value is determined using the fitted line intersection method, i.e., according to the determination results of a fluorescence spectrophotometer, an appropriate wavelength is selected within the corresponding fluorescence emission peak range, and a fluorescence response value-concentration curve is plotted with detergent concentrations on the x-axis and fluorescence intensity on the y-axis. The plateau region and the rising region of the curve are fitted by linear regression, respectively, and the intersection point of two fitted lines is obtained. The surfactant concentration on the x-axis corresponding to the intersection point is the cmc concentration (measured value).
The fluorescence photoelectric detector used in the present invention includes any of the following: • 1) including excitation filter (430 nm), dichroic mirror, and emission filter (495 nm), light source: peak wavelength of 430 nm, waveband of 420 to 440 nm, working current: 0.02 A, working voltage: 5V, the acceptable wavelength range of detector of at least 480-510 nm; • 2) including excitation filter (550 nm), dichroic mirror, and emission filter (638 nm), light source: peak wavelength of 550 nm, waveband of 540 to 560 nm, working current: 0.02 A, working voltage: 5V, the acceptable wavelength range of detector of at least 620-650 nm.
Referring to Examples 1 and 3, Supreme Biotechnology (Brilliant White) detergent solution was prepared. […] Determination was carried out using a CD detector in the above two cases.

Series [9] in a line: cmc of detergent solution by fluorescence probe method, fluorescence spectrophotometer (Example 1). The class given is physicochemical. As to conditions: aqueous solution of Supreme Biotechnology (Bright White) laundry detergent.
Setting [10] is: HSP distance between solvent and curcumin (CUR).
Where [11] appears, read: HSP distance between solvent and rhodamine B.
Setting [12] is: total δ of solvent minus total δ of curcumin (CUR).
Setting [13] is: total δ of solvent minus total δ of rhodamine B.

For the compound `CCN(CC)c1ccc2c(-c3ccccc3C(=O)O)c3ccc(=[N+](CC)CC)cc-3oc2c1` [RhB, rhodamine B, reference compound], the cmc value range in [1] lay within 0.1 to 0.15 g/L. Also, the cmc value range in series [2] lay within 0.3 to 1 g/L. In series [3], the “Dispersion δD” value is 16.7 (MPa)^1/2, the “Hydrogen bonding δH” value was 18.5 (MPa)^1/2, the “Polarity δH” value is given as 17.5 (MPa)^1/2 and the “Total δ” value is 30.453 (MPa)^1/2.

For the compound `CCCCCCCCO` [n-Octanol], in [3], the “Dispersion δD” value is 16 (MPa)^1/2, the “Hydrogen bonding δH” value is on record as 11.9 (MPa)^1/2, the “Polarity δH” value is recorded as 5 (MPa)^1/2 and the “Total δ” value is listed as 20.557 (MPa)^1/2. Moreover, in series [4], the “Solvent solubility in water” value is reported as “Insoluble”, the Flash point is 81 °C, the Viscosity was 8.93 mPa · s and the Volatility/Boiling point was 195 °C. Further, the “Probe solubility in solvent” value in series [5] is recorded as “Soluble (0.01-0.1% is soluble)”. In [6] (setting [10]), the Ra was 3.753 (MPa)^1/2. The Ra in [6] (setting [11]) is recorded as 14.205 (MPa)^1/2. For the same compound, the δ difference in series [6] (setting [12]) is −2.022 (MPa)^1/2. Further, the δ difference in [6] (setting [13]) is recorded as −9.896 (MPa)^1/2.

`CCN(CC)c1ccc2nc3c4ccccc4c(=O)cc-3oc2c1` [NR, Nile red]: the cmc value range in series [1] was 0.05 to 0.1 g/L; in series [2], 0.2 to 0.3 g/L.

For `CN1CCCC1=O` [N-methylpyrrolidone (NMP), N-methylpyrrolidone], the cmc in series [7] (solvent content 0 (v organic solvent/v water)) was determined as 0.067 g/L; in [7] (solvent content 0.4%), 0.076 g/L; in series [7] (solvent content 1%) it was 0.073 g/L; in series [7] (solvent content 2%), 0.101 g/L; in series [7] (solvent content 4%) it was 0.082 g/L; in series [7] (solvent content 10%), 0.131 g/L. Further, the cmc in series [7] (solvent content 20%) came to 0.22 g/L. In addition, the “cmc value, CUR, By Customized fluorescence photoelectric detector” value in [8] was determined as 0.116 g/L. In series [8], the “cmc value, NR, By Customized fluorescence photoelectric detector” value stood at 0.066 g/L. In addition, the “cmc value, NR, By Fluorescence spectrophotometer” value in [9] (label = solvent for probe) was 0.088 g/L. Moreover, the “cmc value, CUR, By Fluorescence spectrophotometer” value in series [9] (label = solvent for probe (auxiliary agent)) was found to be 0.100 g/L. Besides, in series [3], the “Dispersion δD” value is on record as 18 (MPa)^1/2. Also, the “Hydrogen bonding δH” value in [3] is reported as 7.2 (MPa)^1/2. In [3], the “Polarity δH” value is on record as 12.3 (MPa)^1/2. Also, the “Total δ” value in series [3] is given as 22.959 (MPa)^1/2. For the same compound, the Flash point in series [4] is 85 °C. Moreover, the Viscosity in [4] is recorded as 1.65 mPa · s. The Volatility/Boiling point in series [4] is 204 °C. For the same compound, the Ra in series [6] (setting [10]) is reported as 10.950 (MPa)^1/2; in series [6] (HSP distance between solvent and pyrene), 14.343 (MPa)^1/2; in series [6] (setting [11]), 12.708 (MPa)^1/2. The δ difference in series [6] (setting [12]) is on record as 0.380 (MPa)^1/2; in series [6] (total δ of solvent minus total δ of pyrene), 0.050 (MPa)^1/2; in series [6] (setting [13]) it was −7.494 (MPa)^1/2.

For the compound `OCCCCCO` [1,5-Pentanediol], in series [4], the Flash point was 129 °C, the Viscosity is on record as 128 mPa · s and the Volatility/Boiling point is 242 °C. For the same compound, the “Probe solubility in solvent” value in [5] was “Soluble (0.01-0.1% is soluble)”. The Ra in series [6] (setting [10]) was 6.580 (MPa)^1/2. The δ difference in [6] (setting [12]) is listed as 4.118 (MPa)^1/2.

In turn, `c1ccc(Nc2cccc3ccccc23)cc1` [NPN, N-phenyl-1-naphthylamine] showed a cmc value range in series [1] of 0.02 to 0.05 g/L.

Take `COc1cc(/C=C/C(=O)CC(=O)/C=C/c2ccc(O)c(OC)c2)ccc1O` [CUR, curcumin]: the cmc value range in series [1] lay in the range of 0.05 to 0.1 g/L; in series [2], 0.2 to 0.3 g/L.

Turning to `Cc1cc(=O)oc2c3c4c(cc12)CCCN4CCC3` [C480, coumarin 480], the cmc value range was 0.05 to 0.2 g/L in [1] and 0.3 to 1 g/L in [2].

Take `c1cc2ccc3cccc4ccc(c1)c2c34` [PYR, pyrene, reference compound]: in series [1], the cmc value range lay in the range of 0.05 to 0.2 g/L. In addition, the cmc value range in [2] lay in the range of 0.03 to 0.1 g/L. Further, in series [3], the “Dispersion δD” value is on record as 22.5 (MPa)^1/2, the “Hydrogen bonding δH” value is reported as 4 (MPa)^1/2, the “Polarity δH” value is 1.6 (MPa)^1/2 and the “Total δ” value is listed as 22.909 (MPa)^1/2.

Consider `CCCCCC` [n-Hexane], for which, in series [4], the “Solvent solubility in water” value is reported as “Insoluble” and the Volatility/Boiling point is 69 °C. Besides, the “Probe solubility in solvent” value in [5] is on record as “Insoluble”. For the same compound, the Ra in series [6] (setting [10]) was 15.204 (MPa)^1/2. The δ difference in series [6] (setting [12]) is given as −7.679 (MPa)^1/2.
